Patent US4110327A, “2,3 Diketo-piperazinocarbonylamino alkanoic acids and derivatives” (Toyama Chemical Co., Ltd., priority 1974, dated 1978)
Values after ≈ are worked out from the molar mass of the structure shown.

Experiments:
Type in all cases: cell-based
Klebsiella pneumoniae [1] = test: MIC against clinical isolates; settings: unit assumed
Pseudomonas aeruginosa = test: MIC against clinical isolates; settings: unit assumed
Salmonella typhi = test: MIC against clinical isolates; settings: unit assumed
Escherichia coli = test: MIC against clinical isolates; settings: unit assumed
Salmonella typhi-murium = test: MIC against clinical isolates; settings: unit assumed
Shigella sonnei = test: MIC against clinical isolates; settings: unit assumed
Experimental: (§1) The minimum inhibitory concentrations (MIC) was determined by the plate method disclosed in "Chemotherapy" (Japan), Vol. 16, (1968), pages 98 - 99. The culture medium used was a Heart infusion agar (pH 7.4). The number of the cells per plate used in the inoculum as 10^4 (10^6 cells/ml).
(§2) MIC was determined in the same manner as in the preceding paragraph (1).

Shigella flexneri = test: MIC against clinical isolates; settings: unit assumed
Experimental: as §1, §2

[2] = system: Staphylococcus aureus 209p; test: MIC against standard strain, plate method; settings: unit assumed
Experimental: as §1

Proteus vulgaris 3027 = test: MIC against standard strain, plate method; settings: Proteus vulgaris 3027, standard strain; unit assumed
Experimental: as §1

Escherichia coli NIHJ = test: MIC against standard strain, plate method; settings: unit assumed
Experimental: as §1

Klebsiella pneumoniae [3] = test: MIC against standard strain, plate method; settings: unit assumed
Experimental: as §1

[4] = system: Pseudomonas aeruginosa I.F.O.; test: MIC against standard strain, plate method; settings: unit assumed
Experimental: as §1

Staphylococcus aureus = test: MIC against clinical isolates; settings: unit assumed
[5] = clinical isolate GN (number not given; Table 5-3)

Structure (SMILES)	MIC (Klebsiella pneumoniae [1]; clinical isolate GN 917) [µg/mL]	MIC (Klebsiella pneumoniae [1]; clinical isolate GN 4081) [µg/mL]	MIC (Klebsiella pneumoniae [1]; clinical isolate GN 4117) [µg/mL]	MIC (Pseudomonas aeruginosa; clinical isolate GN 82) [µg/mL]	MIC (Pseudomonas aeruginosa; clinical isolate GN 163) [µg/mL]	MIC (Pseudomonas aeruginosa; clinical isolate GN 221) [µg/mL]	MIC (Pseudomonas aeruginosa; clinical isolate GN 376) [µg/mL]	MIC (Pseudomonas aeruginosa; clinical isolate GN 383) [µg/mL]	MIC (Pseudomonas aeruginosa; clinical isolate GN 1035) [µg/mL]	MIC (Pseudomonas aeruginosa; clinical isolate GN 1091) [µg/mL]	MIC (Pseudomonas aeruginosa; clinical isolate GN 2565) [µg/mL]	MIC (Pseudomonas aeruginosa; clinical isolate GN 2987) [µg/mL]	MIC (Pseudomonas aeruginosa; [5]) [µg/mL]	MIC (Pseudomonas aeruginosa; clinical isolate S-1) [µg/mL]	MIC (Salmonella typhi; clinical isolate SL 819) [µg/mL]	MIC (Salmonella typhi; clinical isolate SL 2169) [µg/mL]	MIC (Salmonella typhi-murium; clinical isolate SL 858) [µg/mL]	MIC (Salmonella typhi-murium; clinical isolate SL 2136) [µg/mL]	MIC (Shigella sonnei; clinical isolate JS 11232) [µg/mL]	MIC (Shigella flexneri; clinical isolate JS 11215) [µg/mL]	also measured
CCCCCCN1CCN(C(=O)N[C@@H](C(=O)N[C@@H]2C(=O)N3[C@@H]2SC(C)(C)[C@@H]3C(=O)O)c2ccccc2)C(=O)C1 [compound 13]	12.5 (≈ 22.3 µM)	25 (≈ 44.7 µM)	25 (≈ 44.7 µM)	50 (≈ 89.3 µM)	25 (≈ 44.7 µM)	50 (≈ 89.3 µM)	50 (≈ 89.3 µM)	50 (≈ 89.3 µM)	50 (≈ 89.3 µM)	25 (≈ 44.7 µM)	50 (≈ 89.3 µM)	12.5 (≈ 22.3 µM)	50 (≈ 89.3 µM)	50 (≈ 89.3 µM)	6.25 (≈ 11.2 µM)	3.13 (≈ 5.59 µM)	0.79 (≈ 1.41 µM)	200 (≈ 357 µM)	12.5 (≈ 22.3 µM)	12.5 (≈ 22.3 µM)	MIC (Pseudomonas aeruginosa; clinical isolate S-2): 50 µg/mL (≈ 89.3 µM); MIC (Pseudomonas aeruginosa; clinical isolate S-3): 100 µg/mL (≈ 179 µM); MIC (Pseudomonas aeruginosa; clinical isolate S-4): 50 µg/mL (≈ 89.3 µM); MIC (Escherichia coli; clinical isolate GN 3465): 25 µg/mL (≈ 44.7 µM); MIC (Escherichia coli; clinical isolate K-3): 100 µg/mL (≈ 179 µM); MIC (Shigella flexneri; clinical isolate JS 11839): 1.57 µg/mL (≈ 2.81 µM); MIC [2]: < 1.57 µg/mL; MIC (Proteus vulgaris 3027): < 1.57 µg/mL; MIC (Escherichia coli NIHJ): < 1.57 µg/mL; MIC (Klebsiella pneumoniae [3]): < 1.57 µg/mL; MIC [4]: 25 µg/mL (≈ 44.7 µM); MIC (Staphylococcus aureus; clinical isolate F-1): 12.5 µg/mL (≈ 22.3 µM); MIC (Staphylococcus aureus; clinical isolate F-2): 1.57 µg/mL (≈ 2.81 µM); MIC (Staphylococcus aureus; clinical isolate F-5): 200 µg/mL (≈ 357 µM); MIC (Staphylococcus aureus; clinical isolate MS 8619): 0.79 µg/mL (≈ 1.41 µM)
CC(=O)N1CCN(C(=O)N[C@@H](C(=O)N[C@@H]2C(=O)N3[C@@H]2SC(C)(C)[C@@H]3C(=O)O)c2ccccc2)C(=O)C1 [compound 1]	25 (≈ 48.3 µM)	> 200	200 (≈ 386 µM)	25 (≈ 48.3 µM)	25 (≈ 48.3 µM)	25 (≈ 48.3 µM)	25 (≈ 48.3 µM)	50 (≈ 96.6 µM)	100 (≈ 193 µM)	25 (≈ 48.3 µM)	50 (≈ 96.6 µM)	25 (≈ 48.3 µM)	25 (≈ 48.3 µM)	50 (≈ 96.6 µM)	6.25 (≈ 12.1 µM)	6.25 (≈ 12.1 µM)	12.5 (≈ 24.2 µM)	> 200	> 200	100 (≈ 193 µM)	MIC (Klebsiella pneumoniae [1]; clinical isolate GN 3850): 25 µg/mL (≈ 48.3 µM); MIC (Pseudomonas aeruginosa; clinical isolate S-2): 100 µg/mL (≈ 193 µM); MIC (Pseudomonas aeruginosa; clinical isolate S-3): 50 µg/mL (≈ 96.6 µM); MIC (Pseudomonas aeruginosa; clinical isolate S-4): 50 µg/mL (≈ 96.6 µM); MIC (Escherichia coli; clinical isolate GN 3465): 200 µg/mL (≈ 386 µM); MIC (Escherichia coli; clinical isolate K-2): 25 µg/mL (≈ 48.3 µM); MIC (Escherichia coli; clinical isolate K-3): > 200 µg/mL; MIC (Shigella flexneri; clinical isolate JS 11839): 3.13 µg/mL (≈ 6.05 µM); MIC [2]: < 1.57 µg/mL; MIC (Proteus vulgaris 3027): 3.13 µg/mL (≈ 6.05 µM); MIC (Escherichia coli NIHJ): < 1.57 µg/mL; MIC [4]: 25 µg/mL (≈ 48.3 µM); MIC (Staphylococcus aureus; clinical isolate F-2): 3.13 µg/mL (≈ 6.05 µM); MIC (Staphylococcus aureus; clinical isolate F-5): > 200 µg/mL; MIC (Staphylococcus aureus; clinical isolate MS 8596): 3.13 µg/mL (≈ 6.05 µM); MIC (Staphylococcus aureus; clinical isolate MS 8619): 1.57 µg/mL (≈ 3.03 µM); MIC (Staphylococcus aureus; clinical isolate MS 8684): 3.13 µg/mL (≈ 6.05 µM); MIC (Staphylococcus aureus; clinical isolate MS 8713): 3.13 µg/mL (≈ 6.05 µM)
CC1(C)S[C@@H]2[C@H](NC(=O)C(c3ccccc3)S(=O)(=O)O)C(=O)N2[C@H]1C(=O)O (stereo partly shown) [Sodium Sulbenicillum, reference compound]															6.25	1.57	25	> 200	> 200	> 200	MIC (Shigella sonnei; clinical isolate JS 11755): > 200 µg/mL; MIC (Shigella flexneri; clinical isolate JS 11839): 12.5 µg/mL
CCCCN1CCN(C(=O)N[C@@H](C(=O)N[C@@H]2C(=O)N3[C@@H]2SC(C)(C)[C@@H]3C(=O)O)c2ccccc2)C(=O)C1 [compound 14]	25 (≈ 47 µM)	50 (≈ 94 µM)	50 (≈ 94 µM)	25 (≈ 47 µM)	25 (≈ 47 µM)	25 (≈ 47 µM)	50 (≈ 94 µM)	50 (≈ 94 µM)	50 (≈ 94 µM)	25 (≈ 47 µM)	50 (≈ 94 µM)	12.5 (≈ 23.5 µM)	50 (≈ 94 µM)	50 (≈ 94 µM)	6.25 (≈ 11.8 µM)	3.13 (≈ 5.89 µM)	1.57 (≈ 2.95 µM)	200 (≈ 376 µM)	25 (≈ 47 µM)	25 (≈ 47 µM)	MIC (Klebsiella pneumoniae [1]; clinical isolate GN 3850): 12.5 µg/mL (≈ 23.5 µM); MIC (Pseudomonas aeruginosa; clinical isolate S-2): 50 µg/mL (≈ 94 µM); MIC (Pseudomonas aeruginosa; clinical isolate S-3): 100 µg/mL (≈ 188 µM); MIC (Pseudomonas aeruginosa; clinical isolate S-4): 50 µg/mL (≈ 94 µM); MIC (Escherichia coli; clinical isolate GN 3465): 50 µg/mL (≈ 94 µM); MIC (Escherichia coli; clinical isolate K-2): 12.5 µg/mL (≈ 23.5 µM); MIC (Escherichia coli; clinical isolate K-3): 200 µg/mL (≈ 376 µM); MIC [2]: < 1.57 µg/mL; MIC (Proteus vulgaris 3027): < 1.57 µg/mL; MIC (Escherichia coli NIHJ): < 1.57 µg/mL; MIC [4]: 25 µg/mL (≈ 47 µM); MIC (Staphylococcus aureus; clinical isolate F-1): 12.5 µg/mL (≈ 23.5 µM); MIC (Staphylococcus aureus; clinical isolate F-5): 200 µg/mL (≈ 376 µM); MIC (Staphylococcus aureus; clinical isolate MS 8619): 0.79 µg/mL (≈ 1.49 µM)
